Measured values from BindingDB's records for doi:10.1021/jm00095a003 (C.N.R.-Centro Studio Sostanze Organiche Naturali, 1992).

How the values were obtained:
[1] = target: T1, Muscarinic acetylcholine receptor (Cavia porcellus, UniProt Q8VH26); assay: Dissociation constant at muscarinic acetylcholine receptor M3 guinea pig bladder.
[2] = target: T1, Muscarinic acetylcholine receptor; assay: Dissociation constant at muscarinic acetylcholine receptor M3 of guinea pig ileum.
[3] = target: T1, Muscarinic acetylcholine receptor; assay: Dissociation constant at muscarinic M3 receptors of guinea pig ileum.
[4] = target: T1, Muscarinic acetylcholine receptor; assay: Dissociation constant at muscarinic M3 receptors of guinea pig bladder.

T1 sequence (Q8VH26 whole entry): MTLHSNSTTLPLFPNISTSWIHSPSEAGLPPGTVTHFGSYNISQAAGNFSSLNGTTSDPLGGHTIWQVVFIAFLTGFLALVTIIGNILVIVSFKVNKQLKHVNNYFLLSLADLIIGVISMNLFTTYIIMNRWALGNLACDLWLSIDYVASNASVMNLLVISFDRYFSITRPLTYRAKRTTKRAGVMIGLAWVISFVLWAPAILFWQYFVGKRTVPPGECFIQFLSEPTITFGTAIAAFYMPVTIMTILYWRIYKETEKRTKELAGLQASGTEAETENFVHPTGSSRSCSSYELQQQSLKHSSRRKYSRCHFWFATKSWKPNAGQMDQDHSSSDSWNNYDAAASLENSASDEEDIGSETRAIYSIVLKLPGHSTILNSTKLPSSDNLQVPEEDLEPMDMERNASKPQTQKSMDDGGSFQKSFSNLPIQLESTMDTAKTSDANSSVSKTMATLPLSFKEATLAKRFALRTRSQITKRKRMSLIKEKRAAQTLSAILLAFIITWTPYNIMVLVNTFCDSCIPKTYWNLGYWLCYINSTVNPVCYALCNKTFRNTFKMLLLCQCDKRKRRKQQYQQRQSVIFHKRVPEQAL

Row | Compound | Kd [1] [µM] | Kd [2] [µM] | Kd [3] [µM] | Kd [4] [µM]
1 | C[C@@H]1O[C@H](C[N+](C)(C)C)C[C@H]1O | 24 | 1.12 | – | –
2 | C[C@@H]1O[C@H](C[N+](C)(C)C)C[C@H]1F | – | – | 1.91 | 40.7
